Five molecules from publication PMC2928817 (PLoS Pathogens, 2010) can be followed below.

Molecules are shown by their SMILES.

For experiment [1], the system named is A/Vietnam/HCM9727/2009 (VN9727s). Also on record: species or system 2009 pandemic influenza A (H1N1) virus. The conditions noted are these: in vivo.
Experiment [2] has as its system A/Osaka/180/2009 (O180r). Further details: species or system 2009 pandemic influenza A (H1N1) virus. The settings on record: in vivo.
Experiment [3] relates to A/Vietnam/HN32060/2009 (VN32060r). Further details: species or system 2009 pandemic influenza A (H1N1) virus. The conditions noted are these: in vivo.
The subject of experiment [4] is A/Osaka/164/2009 (O164s). Further details: species or system 2009 pandemic influenza A (H1N1) virus. The settings on record: in vivo.
For experiment [5], the system named is A/Vietnam/HN32060/2009 (VN32060r). The format is cell-based, 2009 pandemic influenza A (H1N1) virus.
The subject of experiment [6] is A/Vietnam/HCM9727/2009 (VN9727s). The format is cell-based, 2009 pandemic influenza A (H1N1) virus.
Experiment [7] concerns A/Osaka/164/2009 (O164s). The format is cell-based, 2009 pandemic influenza A (H1N1) virus.
Experiment [8] has as its system A/Osaka/180/2009 (O180r). The format is cell-based, 2009 pandemic influenza A (H1N1) virus.

Regarding `CCOC(=O)C1=C[C@@H](OC(CC)CC)[C@H](NC(C)=O)[C@@H](N)C1` [oseltamivir, oseltamivir phosphate], the “virus titers of VN9727s in the lungs of mice” value in experiment [1] is recorded as “significantly reduced”. Moreover, the “replication of O180r in the lungs of mice” value (shortened to “replication of O180r”) in experiment [2] is on record as “not inhibited”. In addition, in experiment [3], the “replication of VN32060r in the lungs of mice” value (“replication of VN32060r” below) was “not inhibited”. Besides, the “virus titers of O164s in the lungs of mice” value in experiment [4] was “significantly reduced”.

On to `CC(=O)N[C@H]1[C@H]([C@H](O)[C@H](O)CO)OC(C(=O)O)=C[C@@H]1N=C(N)N` [Zanamivir], for which the “growth of VN32060r in the presence of NA inhibitor” value in experiment [5] is “inhibited the replication”. For the same molecule, in experiment [6], the “growth of VN9727s in the presence of NA inhibitor” value is “inhibited the replication”. For the same molecule, the “growth of O164s in the presence of NA inhibitor” value in experiment [7] is listed as “inhibited the replication”. Further, the “growth of O180r in the presence of NA inhibitor” value in experiment [8] was “inhibited the replication”.

As for `[H]/N=C(\N)N[C@H]1C=C(C(=O)O)O[C@@H]([C@H](OC)[C@H](O)COC(=O)CCCCCCC)[C@@H]1NC(C)=O` [CS-8958], the “replication of VN9727s in the lungs of mice” value in experiment [1] is “significantly reduced”. The “replication of O180r” value in experiment [2] was “significantly reduced”. In addition, in experiment [3], the “replication of VN32060r” value was “significantly reduced”. Further, the “replication of O164s in the lungs of mice” value in experiment [4] was “significantly reduced”.

Take `CCC(CC)O[C@@H]1C=C(C(=O)O)C[C@H](N)[C@H]1NC(C)=O` [Oseltamivir carboxylate]: the “growth of VN32060r in the presence of NA inhibitor” value in experiment [5] is listed as “replicated efficiently”. Moreover, the “growth of VN9727s in the presence of NA inhibitor” value in experiment [6] is given as “severely impaired”. The “growth of O164s in the presence of NA inhibitor” value in experiment [7] is reported as “severely impaired”. Further, the “growth of O180r in the presence of NA inhibitor” value in experiment [8] was “replicated efficiently”.

As for `NC(=O)c1nc(F)c[nH]c1=O` [favipiravir, Favipiravir], the “replication of VN9727s in the lungs of mice” value in experiment [1] is “significantly reduced”. In experiment [2], the “replication of O180r” value was “significantly reduced”. Moreover, the “replication of VN32060r” value in experiment [3] is reported as “significantly reduced”. Moreover, in experiment [4], the “replication of O164s in the lungs of mice” value is reported as “significantly reduced”.
